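Method: 48-hour compound exposure of cells in 96-well plates, five concentrations, linear interpolation of endpoints. Abbreviation: GI50, concentration required for 50% inhibition of growth.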 Calls of active or inactive are those of the source. No stated cut-off is given here; in the data, active = GI50 up to about 1.1 µM and inactive = higher.
What was measured:
Experiment in all cases: DTP human tumour cell line panel, 48 h
HT-29 = tested on: HT-29
SN12C = tested on: SN12C
U-251 = tested on: U-251
SR = tested on: SR
SK-MEL-2 = tested on: SK-MEL-2
PC-3 = tested on: PC-3
Hs-578T = tested on: Hs-578T
M14 = tested on: M14
UACC-257 = tested on: UACC-257
LOX IMVI = tested on: LOX IMVI
OVCAR-3 = tested on: OVCAR-3
NCI-H23 = tested on: NCI-H23
KM12 = tested on: KM12
K562 = tested on: K562
MDA-N = tested on: MDA-N
786-0 = tested on: 786-0
RPMI-8226 = tested on: RPMI-8226
CAKI-1 = tested on: CAKI-1
SF-539 = tested on: SF-539
BT-549 = tested on: BT-549

CC(=O)OCC(=O)OC[C@H](OCc1ccccc1)[C@@H]1[C@H](OC(C)=O)C(=O)N1Cc1ccccc1
GI50 (HT-29): > 100 µM (inactive) | GI50 (SN12C): > 100 µM (inactive) | GI50 (U-251): > 100 µM (inactive) | GI50 (SR): > 100 µM (inactive) | GI50 (SK-MEL-2): > 100 µM (inactive) | GI50 (PC-3): > 100 µM (inactive) | GI50 (Hs-578T): > 100 µM (inactive) | GI50 (M14): > 100 µM (inactive) | GI50 (UACC-257): > 100 µM (inactive) | GI50 (LOX IMVI): > 100 µM (inactive) | GI50 (OVCAR-3): > 100 µM (inactive) | GI50 (NCI-H23): > 100 µM (inactive) | GI50 (KM12): > 100 µM (inactive) | GI50 (K562): > 100 µM (inactive) | GI50 (MDA-N): > 100 µM (inactive) | GI50 (786-0): > 100 µM (inactive) | GI50 (RPMI-8226): > 100 µM (inactive)

Cc1ccc(SCC(CSCCO)OCn2cnc3c2N=C(N)NC32OCCO2)cc1 (centres undefined)
GI50 (CAKI-1): > 100 µM (inactive) | GI50 (HT-29): > 100 µM (inactive) | GI50 (U-251): > 100 µM (inactive) | GI50 (SR): > 100 µM (inactive) | GI50 (SK-MEL-2): > 100 µM (inactive) | GI50 (PC-3): > 100 µM (inactive) | GI50 (SF-539): > 100 µM (inactive) | GI50 (Hs-578T): > 100 µM (inactive) | GI50 (M14): > 100 µM (inactive) | GI50 (UACC-257): > 100 µM (inactive) | GI50 (LOX IMVI): > 100 µM (inactive) | GI50 (OVCAR-3): > 100 µM (inactive) | GI50 (NCI-H23): > 100 µM (inactive) | GI50 (K562): > 100 µM (inactive) | GI50 (MDA-N): > 100 µM (inactive) | GI50 (786-0): > 100 µM (inactive) | GI50 (RPMI-8226): > 100 µM (inactive)

O=c1[nH]nc(Cc2ccccc2)n1/N=C/c1ccco1
GI50 (CAKI-1): > 100 µM (inactive) | GI50 (HT-29): > 100 µM (inactive) | GI50 (SN12C): > 100 µM (inactive) | GI50 (U-251): > 100 µM (inactive) | GI50 (SK-MEL-2): > 100 µM (inactive) | GI50 (PC-3): > 100 µM (inactive) | GI50 (BT-549): > 100 µM (inactive) | GI50 (SF-539): > 100 µM (inactive) | GI50 (Hs-578T): 10 µM (inactive) | GI50 (M14): > 100 µM (inactive) | GI50 (UACC-257): > 100 µM (inactive) | GI50 (LOX IMVI): > 100 µM (inactive) | GI50 (OVCAR-3): > 100 µM (inactive) | GI50 (NCI-H23): > 100 µM (inactive) | GI50 (KM12): 77.1 µM (inactive) | GI50 (K562): > 100 µM (inactive) | GI50 (786-0): > 100 µM (inactive) | GI50 (RPMI-8226): > 100 µM (inactive)

CN(C)c1nc(Cl)c2c(-c3ccccc3)c(-c3ccccc3)oc2n1
GI50 (CAKI-1): 23.2 µM (inactive) | GI50 (HT-29): 58.7 µM (inactive) | GI50 (SN12C): 39.5 µM (inactive) | GI50 (U-251): > 100 µM (inactive) | GI50 (SR): 21.8 µM (inactive) | GI50 (BT-549): 29.7 µM (inactive) | GI50 (SF-539): 48 µM (inactive) | GI50 (Hs-578T): 62.1 µM (inactive) | GI50 (M14): > 100 µM (inactive) | GI50 (UACC-257): > 100 µM (inactive) | GI50 (LOX IMVI): 33.3 µM (inactive) | GI50 (NCI-H23): 41.3 µM (inactive) | GI50 (KM12): > 100 µM (inactive) | GI50 (K562): 42.1 µM (inactive) | GI50 (786-0): 72.8 µM (inactive) | GI50 (RPMI-8226): 18.9 µM (inactive)

Nc1cccc(S(=O)(=O)Nc2nnc(S(N)(=O)=O)s2)c1
GI50 (CAKI-1): > 100 µM (inactive) | GI50 (HT-29): > 100 µM (inactive) | GI50 (U-251): > 100 µM (inactive) | GI50 (SR): > 100 µM (inactive) | GI50 (SK-MEL-2): > 100 µM (inactive) | GI50 (PC-3): > 100 µM (inactive) | GI50 (BT-549): > 100 µM (inactive) | GI50 (SF-539): > 100 µM (inactive) | GI50 (M14): > 100 µM (inactive) | GI50 (LOX IMVI): > 100 µM (inactive) | GI50 (OVCAR-3): > 100 µM (inactive) | GI50 (NCI-H23): > 100 µM (inactive) | GI50 (KM12): > 100 µM (inactive) | GI50 (K562): > 100 µM (inactive) | GI50 (786-0): > 100 µM (inactive) | GI50 (RPMI-8226): > 100 µM (inactive)

O=C(CSc1nc2ccc(I)cc2c(=O)n1Cc1ccccc1)NN1C(=O)CSC1c1ccccc1 (centres undefined)
GI50 (CAKI-1): 3.13 µM (inactive) | GI50 (HT-29): 35 µM (inactive) | GI50 (SN12C): 23 µM (inactive) | GI50 (U-251): 29.6 µM (inactive) | GI50 (SR): 26.5 µM (inactive) | GI50 (SK-MEL-2): 24.3 µM (inactive) | GI50 (PC-3): 32.2 µM (inactive) | GI50 (SF-539): 27.9 µM (inactive) | GI50 (M14): 29.5 µM (inactive) | GI50 (UACC-257): 20.4 µM (inactive) | GI50 (LOX IMVI): 19.5 µM (inactive) | GI50 (OVCAR-3): 16.1 µM (inactive) | GI50 (NCI-H23): 18.3 µM (inactive) | GI50 (KM12): 22.5 µM (inactive) | GI50 (K562): 26.5 µM (inactive) | GI50 (MDA-N): 35.7 µM (inactive) | GI50 (786-0): 38.3 µM (inactive) | GI50 (RPMI-8226): 31.2 µM (inactive)

C[C@@H](C1CC[C@H]2[C@@H]3[C@@H]4O[C@@H]4[C@@]4(O)CC=CC(=O)[C@]4(C)[C@H]3C[C@H](O)[C@]12C)[C@H]1C[C@]2(C)O[C@]2(C)C(=O)O1 (some centres undefined)
GI50 (CAKI-1): > 100 µM (inactive) | GI50 (HT-29): > 100 µM (inactive) | GI50 (SN12C): > 100 µM (inactive) | GI50 (U-251): > 100 µM (inactive) | GI50 (SK-MEL-2): > 100 µM (inactive) | GI50 (PC-3): > 100 µM (inactive) | GI50 (SF-539): > 100 µM (inactive) | GI50 (Hs-578T): > 100 µM (inactive) | GI50 (M14): > 100 µM (inactive) | GI50 (UACC-257): > 100 µM (inactive) | GI50 (LOX IMVI): > 100 µM (inactive) | GI50 (OVCAR-3): > 100 µM (inactive) | GI50 (NCI-H23): > 100 µM (inactive) | GI50 (KM12): > 100 µM (inactive) | GI50 (K562): > 100 µM (inactive) | GI50 (MDA-N): > 100 µM (inactive) | GI50 (786-0): > 100 µM (inactive) | GI50 (RPMI-8226): > 100 µM (inactive)

CC[C@@]1(O)C(=O)OCc2c1cc1n(c2=O)Cc2cc3cc(OC)ccc3nc2-1
GI50 (CAKI-1): 0.00476 µM (active) | GI50 (HT-29): 0.0268 µM (active) | GI50 (SN12C): 0.0245 µM (active) | GI50 (U-251): 0.00407 µM (active) | GI50 (SR): 0.00667 µM (active) | GI50 (SK-MEL-2): 0.16 µM (active) | GI50 (PC-3): 0.0364 µM (active) | GI50 (BT-549): 0.0308 µM (active) | GI50 (SF-539): 0.0033 µM (active) | GI50 (M14): 0.00718 µM (active) | GI50 (UACC-257): 0.15 µM (active) | GI50 (LOX IMVI): 0.0221 µM (active) | GI50 (OVCAR-3): 0.435 µM (active) | GI50 (NCI-H23): 0.00902 µM (active) | GI50 (KM12): 0.139 µM (active) | GI50 (K562): 0.123 µM (active) | GI50 (MDA-N): 0.142 µM (active) | GI50 (786-0): 0.00923 µM (active) | GI50 (RPMI-8226): 0.107 µM (active)

Source: ChEMBL document CHEMBL1201862, “PubChem BioAssay data set” (2004)
